{
  "source": "patent US9173863B2",
  "about": "“Antiviral compound and COX-2 inhibitor combination therapy for functional somatic syndromes, including combination of famciclovir and celecoxib” (INNOVATIVE MED CONCEPTS, LLC, priority 2012, dated 2015)",
  "origin": "cited, not measured here",
  "system": "fibromyalgia patients",
  "conditions": "valacyclovir alone",
  "data": [
    {"smiles": "CC(C)[C@H](N)C(=O)OCCOCn1cnc2c(=O)[nH]c(N)nc21", "note": "[valacyclovir]", "values": [
      {"measurement": "Treatment outcome in fibromyalgia patients", "value": "not successful"}
    ]}
  ]
}
